In patent publication US10370412B2, “Beta-hairpin peptidomimetics” (Polyphor AG, priority 2013, dated 2019):
Where a SMILES comes first, the peptide text is derived from it. [ ]: non-standard residue; d: D form. Pro(3S-OH) = O=C(O)[C@H]1NCC[C@@H]1O; Cha = N[C@@H](CC1CCCCC1)C(=O)O; aThr = C[C@H](O)[C@H](N)C(=O)O; Tle = CC(C)(C)[C@H](N)C(=O)O; dDab = NCC[C@@H](N)C(=O)O; hSer = N[C@@H](CCO)C(=O)O; Orn = NCCC[C@H](N)C(=O)O; Api = NC1(C(=O)O)CCNCC1; Dab = NCC[C@H](N)C(=O)O

What follows are molecules tested on human red blood cells (hRBC). Settings: red cells of human, 1 h.
Assay type: cell-based
Description: The peptides were tested for their hemolytic activity against human red blood cells (hRBC). Fresh hRBC were washed three times with phosphate buffered saline (PBS) and centrifuged for 10 min at 2000×g. Compounds (100 μg/ml) were incubated with 20% hRBC (v/v) for 1 h at 37° C. and shaking at 300 rpm. The final erythrocyte concentration was approximately 0.9×10^9 cells/ml. A value of 0% and 100% cell lyses, respectively, was determined by incubation of hRBC in the presence of PBS containing 0.001% acetic acid and 2.5% Triton X-100 in H2O, respectively. The samples were centrifuged, the supernatants were 8-fold diluted in PBS buffer and the optical densities (OD) were measured at 540 nm. The 100% lyses value (OD540H2O) gave an OD540 of approximately 0.5-1.0. Percent hemolysis was calculated as follows: (OD540peptide/OD540H2O)×100%.

| SMILES | Hemolysis at 100 μg/ml [%] |
| --- | --- |
| C[C@@H]1NC(=O)[C@H](C(C)(C)C)NC(=O)[C@H](CCO)NC(=O)[C@H](Cc2c[nH]c3ccccc23)NC(=O)[C@H](CCN)NC(=O)[C@@H](CCN)NC(=O)[C@H](CCCN)NC(=O)[C@H](CCN)NC(=O)[C@H](Cc2ccc(O)cc2)NC(=O)[C@H](Cc2c[nH]cn2)NC(=O)[C@H](Cc2c[nH]c3ccccc23)NC(=O)[C@@H]2CCCN2C(=O)[C@H]2CCCN2C(=O)[C@H](CO)NC1=O [Ex. 1, cyclo(-Trp-His-Tyr-Dab-Orn-^DDab-Dab-Trp-Hse-tBuGly-Ala-Ser-^DPro-Pro-)] (cyclo(WHY[Dab][Orn][dDab][Dab]W[hSer][Tle]AS[dP]P)) | 1 |
| C[C@@H]1NC(=O)[C@H](C(C)(C)C)NC(=O)[C@H](CCN)NC(=O)[C@H](Cc2c[nH]c3ccccc23)NC(=O)[C@H](CCN)NC(=O)[C@@H](CCN)NC(=O)[C@H](CCCCN)NC(=O)[C@H](CCN)NC(=O)[C@H](CC2CCCCC2)NC(=O)[C@H](Cc2c[nH]c3ccccc23)NC(=O)[C@H](Cc2c[nH]c3ccccc23)NC(=O)[C@@H]2CCCN2C(=O)[C@H]2CCCN2C(=O)[C@H](CO)NC1=O [Ex. 11, cyclo(-Trp-Trp-Cha-Dab-Lys-^DDab-Dab-Trp-Dab-tBuGly-Ala-Ser-^DPro-Pro-)] (cyclo(WW[Cha][Dab]K[dDab][Dab]W[Dab][Tle]AS[dP]P)) | 1 |
| CC(C)(C)[C@@H]1NC(=O)[C@H](CCN)NC(=O)[C@H](Cc2c[nH]c3ccccc23)NC(=O)[C@H](CCN)NC(=O)C2(CCNCC2)NC(=O)[C@H](CCCN)NC(=O)[C@H](CCN)NC(=O)[C@H](CC2CCCCC2)NC(=O)[C@H](Cc2c[nH]cn2)NC(=O)[C@H](Cc2c[nH]c3ccccc23)NC(=O)[C@@H]2[C@@H](O)CCN2C(=O)[C@H]2CCCN2C(=O)[C@H](CO)NC(=O)[C@H](CO)NC1=O [Ex. 14, cyclo(-Trp-His-Cha-Dab-Orn-Pip-Dab-Trp-Dab-tBuGly-Ser-Ser-^DPro-Pro((3S)OH)—)] (cyclo(WH[Cha][Dab][Orn][Api][Dab]W[Dab][Tle]SS[dP][Pro(3S-OH)])) | 4 |
| CC(C)(C)[C@@H]1NC(=O)[C@H](CCN)NC(=O)[C@H](Cc2c[nH]c3ccccc23)NC(=O)[C@H](CCN)NC(=O)[C@@H](CCN)NC(=O)[C@H](CCCN)NC(=O)[C@H](CCN)NC(=O)[C@H](CC2CCCCC2)NC(=O)[C@H](Cc2c[nH]c3ccccc23)NC(=O)[C@H](Cc2c[nH]c3ccccc23)NC(=O)[C@@H]2[C@@H](O)CCN2C(=O)[C@H]2CCCN2C(=O)[C@H](CO)NC(=O)[C@H](CO)NC1=O [Ex. 15, cyclo(-Trp-Trp-Cha-Dab-Orn-^DDab-Dab-Trp-Dab-tBuGly-Ser-Ser-^DPro-Pro((3S)OH)—)] (cyclo(WW[Cha][Dab][Orn][dDab][Dab]W[Dab][Tle]SS[dP][Pro(3S-OH)])) | 0 |
| COc1ccc(C[C@@H]2NC(=O)[C@H](Cc3c[nH]cn3)NC(=O)[C@H](Cc3c[nH]c4ccccc34)NC(=O)[C@@H]3CCCN3C(=O)[C@H]3CCCN3C(=O)[C@H](CO)NC(=O)[C@H](C)NC(=O)[C@H](C(C)(C)C)NC(=O)[C@H](CCO)NC(=O)[C@H](Cc3c[nH]c4ccccc34)NC(=O)[C@H](CCN)NC(=O)[C@@H](CCN)NC(=O)[C@H](CCCN)NC(=O)[C@H](CCN)NC2=O)cc1 [Ex. 16, cyclo(-Trp-His-Tyr(Me)-Dab-Orn-^DDab-Dab-Trp-Hse-tBuGly-Ala-Ser-^DPro-Pro-)] (cyclo(WHY(Me)[Dab][Orn][dDab][Dab]W[hSer][Tle]AS[dP]P)) | 1 |
| CC(C)C[C@@H]1NC(=O)[C@@H]2CCCN2C(=O)[C@H]2CCCN2C(=O)[C@H]([C@H](C)O)NC(=O)[C@H](C)NC(=O)[C@H](C(C)(C)C)NC(=O)[C@H](CCN)NC(=O)[C@H](Cc2c[nH]c3ccccc23)NC(=O)[C@H](CCN)NC(=O)[C@@H](CCN)NC(=O)[C@H](CCCN)NC(=O)[C@H](CCN)NC(=O)[C@H](CC2CCCCC2)NC(=O)[C@H](Cc2c[nH]cn2)NC1=O [Ex. 17, cyclo(-Leu-His-Cha-Dab-Orn-^DDab-Dab-Trp-Dab-tBuGly-Ala-alloThr-^DPro-Pro-)] (cyclo(LH[Cha][Dab][Orn][dDab][Dab]W[Dab][Tle]A[aThr][dP]P)) | 5 |
